Results on one compound are retold here after patent US8207167B2, “Aryl-phenyl-sulfonamide-phenylene compounds and their use” (PIMCO 2664 Limited, priority 2008, dated 2012).

A short description of the series: In vivo pharmacokinetics in rat, oral and intravenous. Further details: species or system Sprague-Dawley rats. The settings on record: 1 mg/kg. How it is done: Absorption and metabolic stability were studied using an in vivo pharmacokinetics assay. Drug levels were assessed using ultra-performance LC/TOF-MS.
Three male Sprague-Dawley rats, 200-300 g, were dosed per route. […] Test compound was formulated in 50:50 tetraethylene glycol:PBS for both routes. Animals were given free access to food throughout the study. On the day prior to dosing, the carotid artery was cannulated for sample collection and for the intravenous study, the jugular vein was cannulated to enable dosing.
Blood samples were taken from the carotid artery at the following time points and placed in heparinised tubes:
Oral dosing—predose, 0.25, 0.5, 1, 2, 4, 8 and 24 hours post dose.
IV dosing—predose, 0.08, 0.25, 0.5, 1, 2, 4 and 8 hours post dose.
Blood samples were centrifuged to obtain plasma, which was transferred to a separate container and frozen at −20° C.
Samples were thawed at room temperature and prepared by protein precipitation with acetonitrile in the ratio 1:2 with plasma, followed by centrifugation for 10 minutes at 16,100×g (Eppendorf 5415D, Eppendorf AG, Hamburg, Germany). The supernatants were collected for analysis. The standard samples were prepared similarly, after spiking blank rat plasma samples to study compound concentrations at 1, 2, 5, 10, 20, 50, 100, 200, 500 and 1000 ng/mL. In addition, extra samples were prepared from 0-1 hour i.v. samples by diluting 1/20 with 50% aqueous acetonitrile to avoid exceeding the linear range of the analytical method.
A Waters Acquity liquid ultra-performance chromatographic system (Waters Corp., Milford, Mass., USA) with autosampler, vacuum degasser and column oven was used. The analytical column used for all compounds was a Waters BEH C18, (2.1×50 mm, 1.7 μm, Waters Corp, Milford, Mass., USA) together with a 0.2 μm on-line filter before the column. The eluents were 0.1% acetic acid (A, pH 3.2) and methanol (B). Gradient elution from 5% to 60% B in two minutes was employed, followed by one minute gradient to 90% B and column equilibration. The flow rate was 0.5 mL/min and the column oven temperature was 35° C. The flow was directed to the MS via Water Acquity photo-diode-array (PDA) detector. LC/TOF-MS data were recorded with a Micromass LCT Premier XE time-of-flight (TOF) mass spectrometer (Micromass Ltd., Manchester, England) equipped with a LockSpray electrospray ionization source. A positive ionization mode of electrospray was used for all compounds. The mass range of m/z 100-900 was acquired. The W-option of the reflector was used, and the DRE (dynamic range enhancement) option was set to on. The mass spectrometer and HPLC system were operated under Micromass MassLynx 4.1 software. Leucine enkephalin ([M+H]^+ m/z 556.2771) was used as a lock mass compound for accurate mass measurements and was delivered into the LockSpray probe with a syringe pump. MassLynx 4.1 software was used for controlling the instrumentation and for data processing.
The pharmacokinetic parameters for the test compounds were calculated by WinNonlin Pro (Pharsight Corp, CA) using standard noncompartmental methods. The elimination phase half-life (t1/2) was calculated by least-squares regression analysis of the terminal linear part of the log concentration−time curve. The area under the plasma concentration−time curve (AUC) was determined by use of the linear trapezoidal rule up to the last measurable concentration and thereafter by extrapolation of the terminal elimination phase to infinity. The tentative oral bioavailability (F) was calculated by dividing the AUC (0-24 hours) after p.o. administration by the AUC (0-8 hours) after i.v. administration, i.e., F=AUC(p.o.)/AUC(i.v), and reported as percentages (%).

Read-outs that look alike come from different tables or passages of the source.

Regarding `CNC(CO)c1cccc(NS(=O)(=O)c2ccc(-c3ccc(F)cc3F)cc2)c1` (stereo not drawn) [ABD789, 2′,4′-Difluoro-N-(3-(2-hydroxy-1-(methylamino)ethyl)phenyl)biphenyl-4-sulfonamide], the AUC by setting is: (i.v.) 11900 ng/mL/min; (p.o.) 1500 ng/mL/min. The half-life runs as follows: (male, Sprague-Dawley, plasma, iv, i.v., read-out: T½ (converted)) 48.6 min; (male, Sprague-Dawley, plasma, po, following oral administration, read-out: extended half life (converted)) 460 min; (male, Sprague-Dawley, plasma, po, p.o., read-out: T½ (converted)) 190 min. Moreover, the bioavailability (male, Sprague-Dawley, plasma, oral, read-out: Bioavailability F %) is 38%.

By bioavailability is commonly meant the share of a dose that reaches the circulation, judged against a reference dose that is usually intravenous.
